Broadly, the EC50 is the midpoint of the concentration-response curve.

From patent US11332485B2, “Penicillin-binding protein inhibitors” (priority 2017, dated 2022) come the findings set out here.

In one assay the test system is S. aureus ATCC 29213. As to the kind of experiment: Broth microdilution MIC assay. Particulars: Staphylococcus aureus, ATCC29213; broth microdilution, 16-20 hours at 37° C.; read-out: S. aureus 29213 MIC. The class given is cell-based. The essentials:
(§1)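 Two-fold serial dilutions tested per CLSI in cation-supplemented Mueller-Hinton broth against S. aureus ATCC 29213 and hyper-permeable E. coli 901C; inoculum 5×10^5 CFU/mL from 3-5 h log-phase culture. Incubated 16-20 h at 37° C; MIC read visually as lowest concentration with no growth.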

Assay [1] has as its system hyper-permeable E. coli 901C. As to the kind of experiment: Broth microdilution MIC assay. The class given is cell-based. Particulars: Escherichia coli, read-out: E. coli 901C MIC. The essentials: as §1
(Broth dilution looks for growth in wells or tubes with falling amounts of substance.)

Assay [2] deals with E. coli DH5α/pLBII-CTX-M15. Description: Broth microdilution MIC assay, engineered strain producing CTX-M15. The class given is cell-based, Escherichia coli. Particulars: Escherichia coli, read-out: E. coli DH5α/pLBII-CTX-M15 Microbiological Activity (MIC). The method, boiled down: (§2)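 CLSI broth microdilution in cation-supplemented Mueller-Hinton broth, 2-fold compound dilutions, 5×10^5 CFU/mL inoculum, 16-20 h at 37° C, MIC read visually as lowest concentration without growth. E. coli DH5α carries CTX-M15 on pLBII under Lac promoter, or empty pLBII as control.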

Assay [3] deals with T1, PBP3 from Escherichia coli (Escherichia coli, UniProt P0AD68).
T1 construct: made in house
Description: Fluorescence polarization competition binding assay with Bocillin-FL. The essentials:
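Fluorescence polarization competition assay with Bocillin-FL at 0.1 μM final and purified E. coli PBP3 at 1.5 μM final in 50 mM Hepes pH 8.0, 300 mM NaCl, 5% glycerol. Inhibitor preincubated with PBP3 for 30 min before probe addition; FP then read continuously for 60 min. Potency reported in binned categories.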

The next assay deals with E. coli DH5α/pLBII. Description: Broth microdilution MIC assay, empty vector control strain. The class given is cell-based. To be noted: Escherichia coli, read-out: E. coli DH5α/pLBII Microbiological Activity (MIC). The method, boiled down: as §2
The target of assay [4] is T2, PBP1b from Escherichia coli (Escherichia coli, UniProt P02919).
T2 construct: made in house
As to the kind of experiment: Radioligand competition binding assay with 14C-labeled boronic acid probe (Example 96). Particulars: 14C-labeled probe 96 at 20 μM, PBP 0.1 μM; read-out: E. coli K12 PBP1b EC50. The source says:
(§3) To determine the ability of boronic acid-based test PBP inhibitors to bind Penicillin Binding Proteins (PBPs), a radio-labelled boronic acid PBP inhibitor (Example 96) was used in competition binding assays to determine boronic acid PBP inhibitor binding to PBP1a or PBP1b from Escherichia coli. PBP1a and PBP1b were purified as described previously (Bertsche, U.; et al., J. Biol. Chem. 2005, 280 (45), 38096-38101; Born, P.; et al., J Biol. Chem. 2006. 281 (37), 26985-26993). To establish assay conditions for competition binding, an enzyme titration/saturation binding experiment was performed. Saturation binding was performed in a buffer comprised of 20 mM Tris (pH 7.5), 500 mM NaCl and 0.1% (v/v) TritonX-100, with PBP1a/PBP1b at a final concentration of 0.1 μM and 96 at final concentrations ranging from 0-100 μM. Mixtures were incubated for 60 minutes, then applied to Zeba Spin Desalting columns or plates (ThermoFisher Scientific) and centrifuged at 1000-1500×g for 2 minutes. The flow through, containing PBP bound with 96, was recovered and 100 μL mixed with 5 mL of UltimaGold liquid scintillation cocktail (Perkin Elmer), and the radioactivity counted using a Beckman Coulter LS 6500 Multipurpose scintillation counter. PBP binding of 96 approached saturation at 20 μM of ^14C-labeled probe. The competition binding assay was validated using the beta-lactam ampicillin, with 96 at a final concentration of 20 μM, PBP1a/PBP1b at a final concentration of 0.1 μM. PBP1a/PBP1b was incubated with ampicillin in a 96-well microplate for 60 minutes, then 96 was added and the mixtures incubated for an additional 60 minutes. The mixtures were then applied to Zeba Spin desalting plates and centrifuged at 1000×g for 2 minutes. The flow through was recovered and 100 μl mixed with 5 ml of UltimaGold liquid scintillation cocktail and the radioactivity counted. Ampicillin inhibited binding of 96 with an EC50 (the concentration of inhibitor required to reduce binding of 96 by 50%) of less than 0.5 μM. Binding assays with boronic acid PBP inhibitors were performed in an identical fashion. The potency of boronic acid PBP inhibitors was reported as the EC50 value.
(§4) Representative results are shown in Table 5, where A represents a potency of >100 μM, B represents a potency between 10 μM and 100 μM inclusive, and C represents a potency of <10 μM. NT=Not Tested.
For orientation: In a radioligand displacement assay an active substance lowers the binding of a labelled ligand.

The target of assay [5] is T3, PBP1a from Escherichia coli (Escherichia coli, UniProt P02918).
T3 construct: made in house
The description is as above. To be noted: 14C-labeled probe 96 at 20 μM, PBP 0.1 μM; read-out: E. coli K12 PBP1a EC50.
Source text: as §3, §4

In a further assay the target is T4, E. coli PBP3 (Escherichia coli, UniProt P0AD68).
T4 construct: 100 μg's of total membrane protein extracts containing PBPs; endogenous in cells; host or cells: Escherichia coli K12 membrane fraction
Description: Bocillin FL competition binding assay (SDS-PAGE gel, membrane PBPs). To be noted: 15 min. pre-incubation, membrane protein extracts, SDS-PAGE fluorescence scan. On the procedure: (§5) To determine the ability of test compounds to bind Penicillin Binding Proteins (PBPs), a competition binding assay using Bocillin FL (fluorescent derivative of penicillin V) was adapted from the classical method used to assess PBP potency of beta-lactams.
(§6) Penicillin binding proteins were isolated from Escherichia coli K12 by growth of Escherichia coli K12 from a single colony in 4 L of Luria-Bertani (LB) broth at 35° C. and 250 rpm to an OD600 nm of 0.5. The cells were harvested by centrifugation at 7,000×g for 10 min. at 4° C. Cells were resuspended and washed in 50 mM potassium phosphate pH 7.5. The cells were re-suspended in sonication buffer [50 mM Tris-HCl pH 7.5, 1 mM MgCl2, 1 mM beta-mercaptoethanol, and 5 μg/mL DNAse I] and sonicated by 4 passes of 30 seconds at 45 W on ice. The sample was clarified by centrifugation at 3,000×g to remove cell debris and unbroken cells and supernatant containing the membrane proteins was retained. The membrane proteins including the PBPs were further purified from soluble constituents by an ultracentrifugation step at 100,000×g for 30 min. at 4° C. The membrane proteins are washed twice with 10 mM sodium phosphate pH 7, resuspended in a volume of 5 mL, quantitated by BCA assay, adjusted to […] and frozen at −80° C. until use.
(§7) The adapted Bocillin FL competition binding assay described herein incorporates a 15 min. pre-incubation of test compound with isolated PBPs to attempt to balance the difference in mechanism of inhibition between beta-lactams (largely irreversible covalent bond to active site Serine) and the boron-containing PBP inhibitor test compounds (reversible covalent bond to active site Serine). Briefly, 50 μL reactions consisted of 100 μg's of total membrane protein extracts containing PBPs incubated with a dilution series of test compound ranging from 0.005 μg/mL to 2,480 μg/mL in 10 mM sodium phosphate pH7 containing 350 mM NaCl. Thirty minute reactions at 35° C. were initiated by addition of […] Bocillin FL, quenched by addition of SDS-PAGE loading buffer containing sodium dodecyl sulfate (SDS) and heated for 15 minutes at 95° C. to denature proteins in preparation for SDS-polyacrylamide gel electrophoresis. The Bocillin FL labeled PBPs are then separated by SDS-PAGE in Novex NuPage 10% Bis-Tris pre-cast gels (Invitrogen). The SDS-PAGE gel, post-electrophoresis, is then washed in water to remove excess SDS for 10 minutes at room temperature and placed on the scanning bed of a GE Healthcare/Amersham Biosciences Storm 860 fluorescence scanner. […] Effective PBP inhibitors are detected by a reduction in Bocillin FL labeling of the particular PBP over the dose range of test compound in a dose-responsive manner. […]

In a further assay the target is T5, E. coli K12 PBP1a (Escherichia coli, UniProt P02918).
T5 construct: 100 μg's of total membrane protein extracts containing PBPs; endogenous in cells; host or cells: Escherichia coli K12 membrane fraction
The description is as above. Particulars: 15 min. pre-incubation, membrane protein extracts, SDS-PAGE fluorescence scan. The protocol:
as §5, §6, §7

The test system of another assay is E. coli PBP1b. The description is as above. On the set-up: species or system Escherichia coli. Particulars: 15 min. pre-incubation, membrane protein extracts, SDS-PAGE fluorescence scan. The protocol:
as §5
Penicillin binding proteins were isolated from Escherichia coli K12 by growth of Escherichia coli K12 from a single colony in 4 L of Luria-Bertani (LB) broth at 35° C. and 250 rpm to an OD600 nm of 0.5. The cells were harvested by centrifugation at 7,000×g for 10 min. at 4° C. Cells were resuspended and washed in 50 mM potassium phosphate pH 7.5. […] The membrane proteins are washed twice with 10 mM sodium phosphate pH 7, resuspended in a volume of 5 mL, quantitated by BCA assay, adjusted to 10 μg/mL and frozen at −80° C. until use.
The adapted Bocillin FL competition binding assay described herein incorporates a 15 min. pre-incubation of test compound with isolated PBPs to attempt to balance the difference in mechanism of inhibition between beta-lactams (largely irreversible covalent bond to active site Serine) and the boron-containing PBP inhibitor test compounds (reversible covalent bond to active site Serine). […] The SDS-PAGE gel, post-electrophoresis, is then washed in water to remove excess SDS for 10 minutes at room temperature and placed on the scanning bed of a GE Healthcare/Amersham Biosciences Storm 860 fluorescence scanner. […]

T2 sequence (P02919 whole entry): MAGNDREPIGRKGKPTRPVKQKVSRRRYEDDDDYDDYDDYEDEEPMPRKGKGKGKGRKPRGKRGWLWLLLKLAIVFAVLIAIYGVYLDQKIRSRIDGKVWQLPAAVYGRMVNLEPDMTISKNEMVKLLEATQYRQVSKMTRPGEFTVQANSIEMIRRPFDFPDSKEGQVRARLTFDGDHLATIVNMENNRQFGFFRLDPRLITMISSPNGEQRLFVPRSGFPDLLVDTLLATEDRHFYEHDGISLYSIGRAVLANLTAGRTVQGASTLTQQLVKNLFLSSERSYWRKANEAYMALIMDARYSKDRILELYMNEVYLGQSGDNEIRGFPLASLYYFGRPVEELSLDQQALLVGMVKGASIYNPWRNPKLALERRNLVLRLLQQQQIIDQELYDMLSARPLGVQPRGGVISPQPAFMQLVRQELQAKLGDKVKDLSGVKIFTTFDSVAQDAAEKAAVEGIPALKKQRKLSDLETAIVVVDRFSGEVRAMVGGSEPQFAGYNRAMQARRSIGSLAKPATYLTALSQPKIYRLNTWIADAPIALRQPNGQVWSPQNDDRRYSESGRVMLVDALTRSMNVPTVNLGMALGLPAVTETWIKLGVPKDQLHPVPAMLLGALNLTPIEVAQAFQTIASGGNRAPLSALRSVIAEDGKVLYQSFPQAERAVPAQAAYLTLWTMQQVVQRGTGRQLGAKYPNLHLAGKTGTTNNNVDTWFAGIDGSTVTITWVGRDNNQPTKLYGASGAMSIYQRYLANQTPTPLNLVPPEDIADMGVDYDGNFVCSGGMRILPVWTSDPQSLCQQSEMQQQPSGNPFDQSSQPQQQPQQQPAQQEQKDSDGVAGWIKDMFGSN
T1 sequence (P0AD68 1-577): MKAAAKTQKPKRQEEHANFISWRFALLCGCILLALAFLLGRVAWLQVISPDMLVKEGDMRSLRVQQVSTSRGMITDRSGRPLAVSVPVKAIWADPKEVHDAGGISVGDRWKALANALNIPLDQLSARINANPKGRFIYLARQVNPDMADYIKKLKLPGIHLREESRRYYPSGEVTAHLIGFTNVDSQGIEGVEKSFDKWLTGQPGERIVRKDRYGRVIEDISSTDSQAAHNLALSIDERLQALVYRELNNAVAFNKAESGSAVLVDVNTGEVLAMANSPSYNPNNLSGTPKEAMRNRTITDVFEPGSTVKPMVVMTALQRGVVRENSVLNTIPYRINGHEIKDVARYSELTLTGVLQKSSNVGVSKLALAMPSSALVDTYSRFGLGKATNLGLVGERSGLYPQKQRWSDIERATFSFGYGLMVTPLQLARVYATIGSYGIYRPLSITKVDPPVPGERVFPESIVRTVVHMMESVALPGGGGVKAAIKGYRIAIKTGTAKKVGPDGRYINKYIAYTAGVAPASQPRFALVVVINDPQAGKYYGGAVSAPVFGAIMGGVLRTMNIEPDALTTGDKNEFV
T3 sequence (P02918 whole entry): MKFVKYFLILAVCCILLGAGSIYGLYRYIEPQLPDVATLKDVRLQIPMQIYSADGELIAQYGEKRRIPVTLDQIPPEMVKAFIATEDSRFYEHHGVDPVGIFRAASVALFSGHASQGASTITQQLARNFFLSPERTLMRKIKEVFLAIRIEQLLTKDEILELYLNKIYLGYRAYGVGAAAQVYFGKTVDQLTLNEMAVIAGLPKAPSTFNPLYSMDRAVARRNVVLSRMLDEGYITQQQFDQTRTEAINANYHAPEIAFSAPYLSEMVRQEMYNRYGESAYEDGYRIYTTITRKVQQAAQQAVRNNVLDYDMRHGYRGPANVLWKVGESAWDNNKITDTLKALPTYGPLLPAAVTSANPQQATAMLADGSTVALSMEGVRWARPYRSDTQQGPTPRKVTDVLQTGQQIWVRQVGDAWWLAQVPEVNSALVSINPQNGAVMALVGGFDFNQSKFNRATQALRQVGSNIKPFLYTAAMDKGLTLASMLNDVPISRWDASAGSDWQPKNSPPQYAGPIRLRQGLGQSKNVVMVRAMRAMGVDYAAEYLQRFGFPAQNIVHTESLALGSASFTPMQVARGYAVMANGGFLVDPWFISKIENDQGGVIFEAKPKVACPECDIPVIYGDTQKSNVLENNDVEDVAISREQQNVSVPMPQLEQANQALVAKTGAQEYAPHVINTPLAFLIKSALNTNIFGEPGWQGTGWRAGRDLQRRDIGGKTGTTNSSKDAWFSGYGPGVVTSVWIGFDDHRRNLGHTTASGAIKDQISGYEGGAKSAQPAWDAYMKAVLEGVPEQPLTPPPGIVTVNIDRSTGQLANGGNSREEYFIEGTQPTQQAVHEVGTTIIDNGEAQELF
T5 sequence (P02918 whole entry): as above
T4 sequence (P0AD68 1-577): as the sequence (P0AD68 1-577) above

On to `Nc1nc(C(NS(N)(=O)=O)C(=O)N[C@H]2Cc3cccc(C(=O)O)c3OB2O)cs1` (stereo partly drawn) [Example 26, (3R)-3-(2-(2-aminothiazol-4-yl)-2-(sulfamoylamino)acetamido)-2-hydroxy-3,4-dihydro-2H-benzo[e][1,2]oxaborinine-8-carboxylic acid], for which the MIC in the assay with S. aureus ATCC 29213 was more than 128 µg/mL; in assay [1], less than 64 µg/mL; in [2] it was 32 to 64 µg/mL; with E. coli DH5α/pLBII it was 32 to 64 µg/mL. In addition, the EC50 in assay [3] is 30 to 500 µM; in assay [4], 10 to 100 µM; in assay [5] it was less than 10 µM.

`Nc1nc(C(NC(=O)N2CCN(CC3CC3)C(=O)C2=O)C(=O)N[C@H]2Cc3cccc(C(=O)O)c3OB2O)cs1` (stereo partly drawn) [Example 67, (3R)-3-(2-(2-aminothiazol-4-yl)-2-(4-(cyclopropylmethyl)-2,3-dioxopiperazine-1-carboxamido)acetamido)-2-hydroxy-3,4-dihydro-2H-benzo[e][1,2]oxaborinine-8-carboxylic acid]: the MIC with S. aureus ATCC 29213 is 64 to 128 µg/mL; in assay [1], less than 64 µg/mL; in assay [2] it was 32 to 64 µg/mL; with E. coli DH5α/pLBII, 32 to 64 µg/mL. For the same molecule, the EC50 in assay [3] was 30 to 500 µM; in assay [4], less than 10 µM.

As to `N[C@H](C(=O)N[C@H]1Cc2cccc(C(=O)O)c2OB1O)c1ccccc1` [Example 3, (R)-3-((S)-2-amino-2-phenylacetamido)-2-hydroxy-3,4-dihydro-2H-benzo[e][1,2]oxaborinine-8-carboxylic acid], the MIC with S. aureus ATCC 29213 was more than 128 µg/mL; in [1], 64 to 128 µg/mL; in [2] it was 128 to 256 µg/mL; in the assay with E. coli DH5α/pLBII it was 128 to 256 µg/mL. The “E. coli PBP3 Potency” value at E. coli PBP3 is given as “A (A represents a potency of >1000 μg/mL)”. The “E. coliK12 PBP1a Potency” value on E. coli K12 PBP1a was “B (B represents a potency between 64 and 1000 μg/mL inclusive)”. The “E. coli PBP1b Potency” value with E. coli PBP1b is listed as “A (A represents a potency of >1000 μg/mL)”.

Take `CCN1CCN(C(=O)N[C@H](C)C(=O)N[C@H]2Cc3cccc(C(=O)O)c3OB2O)C(=O)C1=O` [Example 34, (R)-3-((R)-2-(4-Ethyl-2,3-dioxopiperazine-1-carboxamido)propanamido)-2-hydroxy-3,4-dihydro-2H-benzo[e][1,2]oxaborinine-8-carboxylic acid]: the MIC in the assay on S. aureus ATCC 29213 was more than 128 µg/mL; in [1], less than 64 µg/mL; in assay [2], 128 to 256 µg/mL; in the assay on E. coli DH5α/pLBII it was 128 to 256 µg/mL. The EC50 in [3] was 30 to 500 µM; in assay [4], less than 10 µM; in assay [5], 10 to 100 µM.

Regarding `C[C@@H](O)[C@@H](NC(=O)N1CCN(CCF)C(=O)C1=O)C(=O)N[C@H]1Cc2cccc(C(=O)O)c2OB1O` [Example 91, (R)-3-((2R,3R)-2-(4-(2-fluoroethyl)-2,3-dioxopiperazine-1-carboxamido)-3-hydroxybutanamido)-2-hydroxy-3,4-dihydro-2H-benzo[e][1,2]oxaborinine-8-carboxylic acid], the values for the MIC (in the assay with S. aureus ATCC 29213; in assay [1]; in assay [2]) were more than 128 µg/mL, less than 64 µg/mL and 8 to 16 µg/mL, respectively. Further, the EC50 is more than 500 µM in [3] and less than 10 µM in assay [4].

For `CCN1CCN(C(=O)N[C@@H](C(=O)N[C@H]2Cc3cccc(C(=O)O)c3OB2O)C(C)C)C(=O)C1=O` [Example 78, (R)-3-((R)-2-(4-ethyl-2,3-dioxopiperazine-1-carboxamido)-3-methylbutanamido)-2-hydroxy-3,4-dihydro-2H-benzo[e][1,2]oxaborinine-8-carboxylic acid], the MIC in the assay on S. aureus ATCC 29213 was 64 to 128 µg/mL; in assay [1], less than 64 µg/mL; in [2], 32 to 64 µg/mL; in the assay with E. coli DH5α/pLBII, 32 to 64 µg/mL. The EC50 in [3] was less than 30 µM; in assay [4], less than 10 µM.

As to `CCN1CCN(C(=O)N[C@H](C(=O)N[C@H]2Cc3cccc(C(=O)O)c3OB2O)[C@H](O)CO)C(=O)C1=O` [Example 73, (R)-3-((2S,3S)-2-(4-ethyl-2,3-dioxopiperazine-1-carboxamido)-3,4-dihydroxybutanamido)-2-hydroxy-3,4-dihydro-2H-benzo[e][1,2]oxaborinine-8-carboxylic acid], the MIC with S. aureus ATCC 29213 is more than 128 µg/mL; in assay [1] it was more than 128 µg/mL; in [2] it was more than 512 µg/mL; with E. coli DH5α/pLBII, more than 512 µg/mL. Besides, the EC50 in assay [3] was more than 500 µM; in assay [4], more than 100 µM.
